Laboratory results published in ChEMBL document CHEMBL1150549, “Synthesis and antifungal activity of new azole derivatives containing an oxathiane ring” (1996).
Converted amounts (≈) assume the structure as drawn.

What was measured:
Type in all cases: functional
Aspergillus fumigatus = experiment: In vitro antifungal activity against Aspergillus fumigatus MTU6001
Candida albicans = experiment: In vitro antifungal activity against Candida albicans KB-8
Mus musculus [1] = experiment: In vivo antifungal activity against Aspergillus fumigatus in mice at a dose of 50 mg/kg upon oral administration
Mus musculus [2] = experiment: In vivo antifungal activity against Candida albicans in mice at a dose of 10 mg/kg upon oral administration
Mus musculus [3] = experiment: In vivo antifungal activity against Aspergillus fumigatus in mice at a dose of 100 mg/kg upon oral administration

Row | SMILES | MIC (Aspergillus fumigatus) | MIC (Candida albicans) | Mean survival days (Mus musculus [1]) | Mean survival days (Mus musculus [2]) | Mean survival days (Mus musculus [3])
1 | CC1COC(Cn2cncn2)(c2ccc(F)cc2F)C(C)(C)S1(=O)=O (single isomer, unassigned) | 12.5 µg/mL (≈ 33.7 µM) | 0.39 µg/mL (≈ 1.05 µM) | 9.4 days | 10 days | –
2 | CC1(C)SCCOC1(Cn1cncn1)c1ccc(F)cc1F (single isomer, unassigned) | 3.13 µg/mL (≈ 9.62 µM) | 0.1 µg/mL (≈ 0.307 µM) | 9.8 days | 8.6 days | –
3 | C[C@@H]1SCCOC1(Cn1cncn1)c1ccc(F)cc1F (single isomer, unassigned) | 25 µg/mL (≈ 80.3 µM) | 0.1 µg/mL (≈ 0.321 µM) | 1.9 days | 2 days | –
4 | CC1(C)C(Cn2cncn2)(c2ccc(F)cc2F)OCCS1(=O)=O (single isomer, unassigned) | 100 µg/mL (≈ 280 µM) | 3.13 µg/mL (≈ 8.76 µM) | 10 days | 9.4 days | –
5 | C[C@H]1C(Cn2cncn2)(c2ccc(F)cc2F)OCCS1(=O)=O (single isomer, unassigned) | > 100 µg/mL | 3.13 µg/mL (≈ 9.12 µM) | 1.8 days | 1.2 days | –
6 | C[C@@H]1C(Cn2cncn2)(c2ccc(F)cc2F)OCCS1(=O)=O (single isomer, unassigned) | > 100 µg/mL | 6.25 µg/mL (≈ 18.2 µM) | 1.1 days | 6.9 days | –
7 | C[C@H]1SCCOC1(Cn1cncn1)c1ccc(F)cc1F (single isomer, unassigned) | 50 µg/mL (≈ 161 µM) | 0.2 µg/mL (≈ 0.642 µM) | 1.5 days | 4.9 days | –
8 | OC(Cn1cncn1)(Cn1cncn1)c1ccc(F)cc1F [FLUCONAZOLE] | 400 µg/mL (≈ 1310 µM) | 0.78 µg/mL (≈ 2.55 µM) | – | 10 days | 2.8 days
9 | C[C@H]([C@](O)(Cn1cncn1)c1ccc(F)cc1F)S(C)(=O)=O [GENACONAZOLE] | 25 µg/mL (≈ 75.5 µM) | 0.39 µg/mL (≈ 1.18 µM) | 10 days | 10 days | –
